The values below come from PubChem BioAssay AID330 (DTP/NCI, 2004).

“And” between values parts separate entries of the source, which are not always exact repeats. Equal entries are not always repeated. Inconclusive results and toxic doses are left out.

The subject of this test is P388 leukemia ip, CD2F1 mice, survival T/C. As to the kind of experiment: NCI In Vivo Anticancer Drug Screen. Data for tumor model P388 Leukemia (intraperitoneal) in CD2F1 (CDF1) mice. The settings on record: endpoint: median survival time, higher = longer survival. The method, boiled down:
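Mice carrying the transplanted tumor received test compound or vehicle. Survival was recorded in each group, and the value is the treated-group measurement divided by that of the vehicle-treated control group.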

Setting [1] is: dose: 60.0 mg/kg/injection, schedule: Q01DX005 (ip), vehicle: saline with Tween-80.
The mark [2] stands for this setting: dose: 120.0 mg/kg/injection, schedule: Q01DX005 (ip), vehicle: saline with Tween-80.
[3] abbreviates: dose: 240.0 mg/kg/injection, schedule: Q01DX005 (ip), vehicle: saline with Tween-80.
The mark [4] stands for this setting: dose: 12.5 mg/kg/injection, schedule: Q01DX005 (ip), vehicle: Klucel (hydroxypropylcellulose) (HPC).

Consider `N=C(N)S(=O)(=O)c1ccccc1`, for which the T/C (dose: 12.5 mg/kg/injection, schedule: Q04DX003 (ip), vehicle: Klucel (hydroxypropylcellulose) (HPC)) is 102 % of control and 106 % of control; the T/C (dose: 25.0 mg/kg/injection, schedule: Q04DX003 (ip), vehicle: Klucel (hydroxypropylcellulose) (HPC)) is 106 % of control and 108 % of control (2×); the T/C (dose: 50.0 mg/kg/injection, schedule: Q04DX003 (ip), vehicle: Klucel (hydroxypropylcellulose) (HPC)) was 102 % of control and 107 % of control and 121 % of control; the T/C (dose: 100.0 mg/kg/injection, schedule: Q04DX003 (ip), vehicle: Klucel (hydroxypropylcellulose) (HPC)) is 112 % of control; the T/C (dose: 200.0 mg/kg/injection, schedule: Q04DX003 (ip), vehicle: Klucel (hydroxypropylcellulose) (HPC)) is 118 % of control.
Consider `CCCC(C)C1(CC)C(=O)N(CCCl)C(=O)N(CCCl)C1=O` (configuration not stated), for which the T/C is 93 % of control (dose: 50.0 mg/kg/injection, schedule: Q01DX009 (ip), vehicle: saline with Tween-80); 99 % of control (dose: 100.0 mg/kg/injection, schedule: Q01DX009 (ip), vehicle: saline with Tween-80); 93 % of control (dose: 200.0 mg/kg/injection, schedule: Q01DX009 (ip), vehicle: saline with Tween-80).
As to `CN1CCOc2c1cnn(CCO)c2=O`, the T/C was 108 % of control under setting [1], 108 % of control under setting [2] and 102 % of control under setting [3].
For the molecule `CC[N](CC)[Ge]([CH2]C)[CH2]C.C[CH2][Ge]([CH2]C)[CH2]C`, the T/C is, setting by setting: (dose: 6.25 mg/kg/injection, schedule: Q01DX009 (ip), vehicle: saline) 98 % of control and 109 % of control; (dose: 12.5 mg/kg/injection, schedule: Q01DX009 (ip), vehicle: saline) 98 % of control and 109 % of control; (dose: 25.0 mg/kg/injection, schedule: Q01DX009 (ip), vehicle: saline) 109 % of control and 114 % of control; (dose: 50.0 mg/kg/injection, schedule: Q01DX009 (ip), vehicle: saline) 121 % of control; (dose: 100.0 mg/kg/injection, schedule: Q01DX009 (ip), vehicle: saline) 118 % of control.
On to `COc1ccc(OC(=O)Nc2cc(Cl)c(OC)cc2OC)c(Cl)c1`, for which the T/C (dose: 50.0 mg/kg/injection, schedule: Q01DX009 (ip), vehicle: saline + alcohol) is 98 % of control; the T/C (dose: 100.0 mg/kg/injection, schedule: Q01DX009 (ip), vehicle: saline + alcohol) was 105 % of control; the T/C (dose: 200.0 mg/kg/injection, schedule: Q01DX009 (ip), vehicle: saline + alcohol) was 96 % of control.
Regarding `Nc1nc(N)c2nc(SCc3ccc(Cl)cc3)c(N)nc2n1`, the T/C was 88 % of control (dose: 15.0 mg/kg/injection, schedule: Q01DX005 (ip), vehicle: Klucel (hydroxypropylcellulose) (HPC)); 88 % of control (dose: 30.0 mg/kg/injection, schedule: Q01DX005 (ip), vehicle: Klucel (hydroxypropylcellulose) (HPC)); 103 % of control (dose: 60.0 mg/kg/injection, schedule: Q01DX005 (ip), vehicle: Klucel (hydroxypropylcellulose) (HPC)); 88 % of control (dose: 120.0 mg/kg/injection, schedule: Q01DX005 (ip), vehicle: Klucel (hydroxypropylcellulose) (HPC)); 94 % of control (dose: 240.0 mg/kg/injection, schedule: Q01DX005 (ip), vehicle: Klucel (hydroxypropylcellulose) (HPC)).
As to `CC(C)([CH2][Sn]([Cl])([CH2]C(C)(C)c1ccccc1)[O][Sn]([Cl])([CH2]C(C)(C)c1ccccc1)[CH2]C(C)(C)c1ccccc1)c1ccccc1`, the T/C was 104 % of control and 97 % of control (dose: 1.56 mg/kg/injection, schedule: Q01DX005 (ip), vehicle: Klucel (hydroxypropylcellulose) (HPC)); 99 % of control and 100 % of control and 109 % of control (dose: 3.12 mg/kg/injection, schedule: Q01DX005 (ip), vehicle: Klucel (hydroxypropylcellulose) (HPC)); 100 % of control and 119 % of control and 96 % of control (dose: 6.25 mg/kg/injection, schedule: Q01DX005 (ip), vehicle: Klucel (hydroxypropylcellulose) (HPC)); 100 % of control and 106 % of control under setting [4].
On to `O=c1cc(-c2ccccc2)nc2cc(-c3ccco3)[nH]n12`, for which the T/C is, setting by setting: under setting [1], 102 % of control; under setting [2], 107 % of control; under setting [3], 111 % of control.
For the molecule `CC(=O)Nc1ccn(C2OC(COC(C)=O)C(OC(C)=O)C2OC(C)=O)c(=O)n1` (configuration not stated), the T/C reads like this: (dose: 62.5 mg/kg/injection, schedule: Q01DX009 (ip), vehicle: Klucel (hydroxypropylcellulose) (HPC)) 102 % of control; (dose: 125.0 mg/kg/injection, schedule: Q01DX009 (ip), vehicle: Klucel (hydroxypropylcellulose) (HPC)) 119 % of control; (dose: 250.0 mg/kg/injection, schedule: Q01DX009 (ip), vehicle: Klucel (hydroxypropylcellulose) (HPC)) 157 % of control; (dose: 500.0 mg/kg/injection, schedule: Q01DX009 (ip), vehicle: Klucel (hydroxypropylcellulose) (HPC)) 155 % of control; (dose: 1000.0 mg/kg/injection, schedule: Q01DX009 (ip), vehicle: Klucel (hydroxypropylcellulose) (HPC)) 174 % of control.
In the case of `CN(C)N=Nc1ccc(C(=O)NC(Cc2ccccc2)C(=O)O)cc1` (configuration not stated), the T/C reads like this: under setting [4], 100 % of control; (dose: 25.0 mg/kg/injection, schedule: Q01DX005 (ip), vehicle: Klucel (hydroxypropylcellulose) (HPC)) 101 % of control; (dose: 50.0 mg/kg/injection, schedule: Q01DX005 (ip), vehicle: Klucel (hydroxypropylcellulose) (HPC)) 98 % of control and 102 % of control; (dose: 200.0 mg/kg/injection, schedule: Q01DX005 (ip), vehicle: Klucel (hydroxypropylcellulose) (HPC)) 107 % of control.
As for `O=C(NC(CCS(=O)(=O)NCCCl)C(=O)OCc1ccccc1)OCc1ccccc1` (configuration not stated), the T/C is, setting by setting: (dose: 12.5 mg/kg/injection, schedule: Q01DX009 (ip), vehicle: other) 104 % of control; (dose: 25.0 mg/kg/injection, schedule: Q01DX009 (ip), vehicle: other) 90 % of control; (dose: 50.0 mg/kg/injection, schedule: Q01DX009 (ip), vehicle: other) 105 % of control; (dose: 100.0 mg/kg/injection, schedule: Q01DX009 (ip), vehicle: other) 103 % of control; (dose: 200.0 mg/kg/injection, schedule: Q01DX009 (ip), vehicle: other) 91 % of control.
With `CCCC[N+](CCCC)(CCCC)CCCC.O=C([O-])[O-].O=C([O-])[O-].[Co+3].[NH-]CC[NH-]`, the T/C runs as follows: (dose: 50.0 mg/kg/injection, schedule: Q01DX009 (ip), vehicle: suspension in saline) 113 % of control and 123 % of control; (dose: 100.0 mg/kg/injection, schedule: Q01DX009 (ip), vehicle: suspension in saline) 120 % of control.
As to `CC1CN=C(c2cccc(NC(=O)NCCCCNC(=O)Nc3cccc(C4=NCC(C)N4)c3)c2)N1` (configuration not stated), the T/C is, setting by setting: (dose: 6.25 mg/kg/injection, schedule: Q01DX005 (ip), vehicle: saline with Tween-80) 100 % of control; (dose: 12.5 mg/kg/injection, schedule: Q01DX005 (ip), vehicle: saline with Tween-80) 104 % of control.
Turning to `Nc1nc2ccccc2[nH]1`, the T/C (dose: 20.0 mg/kg/injection, schedule: Q04DX003 (ip), vehicle: other) was 101 % of control; the T/C (dose: 20.0 mg/kg/injection, schedule: Q04DX003 (oral), vehicle: other) was 102 % of control; the T/C (dose: 40.0 mg/kg/injection, schedule: Q04DX003 (ip), vehicle: other) is 100 % of control; the T/C (dose: 40.0 mg/kg/injection, schedule: Q04DX003 (oral), vehicle: other) is 100 % of control; the T/C (dose: 80.0 mg/kg/injection, schedule: Q04DX003 (ip), vehicle: other) is 101 % of control; the T/C (dose: 80.0 mg/kg/injection, schedule: Q04DX003 (oral), vehicle: other) is 102 % of control. The T/C runs as follows: (dose: 160.0 mg/kg/injection, schedule: Q04DX003 (ip), vehicle: other) 99 % of control; (dose: 160.0 mg/kg/injection, schedule: Q04DX003 (oral), vehicle: other) 102 % of control.
In the case of `CN(C)CCc1ccccn1`, the T/C (dose: 25.0 mg/kg/injection, schedule: Q04DX003 (ip), vehicle: saline) is 101 % of control; the T/C (dose: 50.0 mg/kg/injection, schedule: Q04DX003 (ip), vehicle: saline) is 115 % of control; the T/C (dose: 100.0 mg/kg/injection, schedule: Q04DX003 (ip), vehicle: saline) is 94 % of control.
`CC(=O)/C(=C\c1ccc(Cl)cc1)C(=O)CCN(C)C`: the T/C reads like this: (dose: 50.0 mg/kg/injection, schedule: Q01DX005 (ip), vehicle: saline) 112 % of control; (dose: 100.0 mg/kg/injection, schedule: Q01DX005 (ip), vehicle: saline) 118 % of control.
As for `CC1=CC(=O)C(O)C2(C)C1CC1OC(=O)C(OC(=O)/C=C(\C)C(C)C)C3C(C)C(O)C4(O)OCC13C42` (configuration not stated), the T/C was 113 % of control (dose: 0.25 mg/kg/injection, schedule: Q01DX005 (ip), vehicle: saline + alcohol); 121 % of control (dose: 0.5 mg/kg/injection, schedule: Q01DX005 (ip), vehicle: saline + alcohol); 121 % of control (dose: 1.0 mg/kg/injection, schedule: Q01DX005 (ip), vehicle: saline + alcohol).
As for `COC(=O)c1nc(N)nc(C(=O)OC)c1C(=O)/C=C/c1ccccc1`, the T/C under setting [1] is 100 % of control and the T/C under setting [2] is 98 % of control.
